Reference: the supplement of paper PMC10307832

Assays:
Experiment in all cases: relative viability (nuclei count vs DMSO), 5 days (fraction); higher = more cells survive
NCI-H3122 = test system: NCI-H3122
Procedure, shortened: (§1)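 Relative viability was taken as the ratio of nuclei in treated wells to nuclei in vehicle wells. Lung cancer cell lines in 1536-well plates received compounds by pin tool one day after seeding, either one drug alone or a fixed anchor-drug dose plus five library-drug doses (not always all listed) in √10 steps. Nuclei were counted on 4× images after 5 days of treatment, and values are medians of duplicate plates.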

NCI-H1755 = test system: NCI-H1755
Procedure, shortened: as §1

ChaGo-K-1 = test system: ChaGo-K-1
Procedure, shortened: as §1

NCI-H1395 = test system: NCI-H1395
Procedure, shortened: as §1

HCC-366 = test system: HCC-366
Procedure, shortened: as §1

NCI-H2087 = test system: NCI-H2087
Procedure, shortened: as §1

CAL-12T = test system: CAL-12T
Procedure, shortened: as §1

NCI-H1734 = test system: NCI-H1734
Procedure, shortened: as §1

ABC-1 = test system: ABC-1
Procedure, shortened: as §1

NCI-H1944 = test system: NCI-H1944
Procedure, shortened: as §1

NCI-H1651 = test system: NCI-H1651
Procedure, shortened: as §1

NCI-H460 = test system: NCI-H460
Procedure, shortened: as §1

LU99A = test system: LU99A
Procedure, shortened: as §1

NCI-H2170 = test system: NCI-H2170
Procedure, shortened: as §1

NCI-H2405 = test system: NCI-H2405
Procedure, shortened: as §1

PC-3 [JPC-3] = test system: PC-3 [JPC-3]
Procedure, shortened: as §1

NCI-H1793 = test system: NCI-H1793
Procedure, shortened: as §1

RERF-LC-KJ = test system: RERF-LC-KJ
Procedure, shortened: as §1

HCC-78 = test system: HCC-78
Procedure, shortened: as §1

EPLC-272H = test system: EPLC-272H
Procedure, shortened: as §1

LOU-NH91 = test system: LOU-NH91
Procedure, shortened: as §1

LC-2-ad = test system: LC-2-ad
Procedure, shortened: as §1

Work on Clc1ccc(Nc2nnc(Cc3ccncc3)c3ccccc23)cc1 [Vatalanib] + NC(=O)Nc1cc(-c2cccc(F)c2)sc1C(=O)N[C@H]1CCCNC1 [AZD7762] (partner 0.2 µM) yielded a relative viability (NCI-H3122; first compound 0.04 µM) of 1.07, a relative viability (NCI-H3122; first compound 0.1265 µM) of 0.969 and a relative viability (NCI-H3122; first compound 0.4 µM) of 1.02. The relative viability (NCI-H3122; first compound 1.265 µM) was 0.966, the relative viability (NCI-H3122; first compound 4 µM) was 0.995 and the relative viability (NCI-H1755; first compound 0.04 µM) was 0.451. The relative viability (NCI-H1755; first compound 0.1265 µM) was 0.406, the relative viability (NCI-H1755; first compound 0.4 µM) was 0.489 and the relative viability (NCI-H1755; first compound 1.265 µM) was 0.418. The relative viability (NCI-H1755; first compound 4 µM) was 0.419, the relative viability (ChaGo-K-1; first compound 0.04 µM) was 0.941 and the relative viability (ChaGo-K-1; first compound 0.1265 µM) was 0.845. For the same compound, the relative viability (ChaGo-K-1; first compound 0.4 µM) was 0.88, the relative viability (ChaGo-K-1; first compound 1.265 µM) was 0.865 and the relative viability (ChaGo-K-1; first compound 4 µM) was 0.876. It also gave a relative viability (NCI-H1395; first compound 0.04 µM) of 0.381, a relative viability (NCI-H1395; first compound 0.1265 µM) of 0.381 and a relative viability (NCI-H1395; first compound 0.4 µM) of 0.389. It also gave a relative viability (NCI-H1395; first compound 4 µM) of 0.394, a relative viability (HCC-366; first compound 0.04 µM) of 0.325 and a relative viability (HCC-366; first compound 0.1265 µM) of 0.253. The relative viability (HCC-366; first compound 0.4 µM) was 0.32, the relative viability (HCC-366; first compound 1.265 µM) was 0.194 and the relative viability (HCC-366; first compound 4 µM) was 0.226. For the same compound, the relative viability (NCI-H2087; first compound 0.04 µM) was 1.28, the relative viability (NCI-H2087; first compound 0.1265 µM) was 1.25 and the relative viability (NCI-H2087; first compound 0.4 µM) was 1.4. It also gave a relative viability (NCI-H2087; first compound 1.265 µM) of 1.19, a relative viability (NCI-H2087; first compound 4 µM) of 1.15 and a relative viability (CAL-12T; first compound 0.04 µM) of 0.683. It also gave a relative viability (CAL-12T; first compound 0.1265 µM) of 0.599, a relative viability (CAL-12T; first compound 0.4 µM) of 0.588 and a relative viability (CAL-12T; first compound 1.265 µM) of 0.469. For the same compound, the relative viability (CAL-12T; first compound 4 µM) was 0.574, the relative viability (NCI-H1734; first compound 0.04 µM) was 0.534 and the relative viability (NCI-H1734; first compound 0.1265 µM) was 0.484. The relative viability (NCI-H1734; first compound 0.4 µM) was 0.537, the relative viability (NCI-H1734; first compound 1.265 µM) was 0.536 and the relative viability (NCI-H1734; first compound 4 µM) was 0.528. For the same compound, the relative viability (ABC-1; first compound 0.04 µM) was 0.7, the relative viability (ABC-1; first compound 0.4 µM) was 0.744 and the relative viability (ABC-1; first compound 1.265 µM) was 0.853. For the same compound, the relative viability (ABC-1; first compound 4 µM) was 0.719, the relative viability (NCI-H1944; first compound 0.04 µM) was 0.467 and the relative viability (NCI-H1944; first compound 0.1265 µM) was 0.463. The relative viability (NCI-H1944; first compound 0.4 µM) was 0.623, the relative viability (NCI-H1944; first compound 1.265 µM) was 0.46 and the relative viability (NCI-H1944; first compound 4 µM) was 0.468. The relative viability (NCI-H1651; first compound 0.04 µM) was 0.441, the relative viability (NCI-H1651; first compound 0.1265 µM) was 0.471 and the relative viability (NCI-H1651; first compound 0.4 µM) was 0.46. The relative viability (NCI-H1651; first compound 1.265 µM) was 0.359, the relative viability (NCI-H1651; first compound 4 µM) was 0.4 and the relative viability (NCI-H460; first compound 0.04 µM) was 0.589. The relative viability (NCI-H460; first compound 0.1265 µM) was 0.646, the relative viability (NCI-H460; first compound 1.265 µM) was 0.477 and the relative viability (NCI-H460; first compound 4 µM) was 0.596. It also gave a relative viability (LU99A; first compound 0.04 µM) of 0.351, a relative viability (LU99A; first compound 0.1265 µM) of 0.442 and a relative viability (LU99A; first compound 0.4 µM) of 0.345. For the same compound, the relative viability (LU99A; first compound 1.265 µM) was 0.258, the relative viability (LU99A; first compound 4 µM) was 0.287 and the relative viability (NCI-H2170; first compound 0.04 µM) was 0.988. The relative viability (NCI-H2170; first compound 0.1265 µM) was 0.77, the relative viability (NCI-H2170; first compound 0.4 µM) was 0.892 and the relative viability (NCI-H2170; first compound 1.265 µM) was 0.837. It also gave a relative viability (NCI-H2170; first compound 4 µM) of 0.785, a relative viability (NCI-H2405; first compound 0.04 µM) of 0.799 and a relative viability (NCI-H2405; first compound 0.1265 µM) of 0.694. For the same compound, the relative viability (NCI-H2405; first compound 0.4 µM) was 0.725, the relative viability (NCI-H2405; first compound 4 µM) was 0.696 and the relative viability (PC-3 [JPC-3]; first compound 0.04 µM) was 0.81. It also gave a relative viability (PC-3 [JPC-3]; first compound 0.1265 µM) of 0.751, a relative viability (PC-3 [JPC-3]; first compound 0.4 µM) of 0.674 and a relative viability (PC-3 [JPC-3]; first compound 1.265 µM) of 0.705. The relative viability (PC-3 [JPC-3]; first compound 4 µM) was 0.728, the relative viability (NCI-H1793; first compound 0.04 µM) was 0.518 and the relative viability (NCI-H1793; first compound 0.1265 µM) was 0.311. The relative viability (NCI-H1793; first compound 0.4 µM) was 0.714, the relative viability (NCI-H1793; first compound 1.265 µM) was 0.243 and the relative viability (NCI-H1793; first compound 4 µM) was 0.286. For the same compound, the relative viability (RERF-LC-KJ; first compound 0.04 µM) was 1.16, the relative viability (RERF-LC-KJ; first compound 0.1265 µM) was 0.919 and the relative viability (RERF-LC-KJ; first compound 0.4 µM) was 1.05. The relative viability (RERF-LC-KJ; first compound 1.265 µM) was 0.711, the relative viability (RERF-LC-KJ; first compound 4 µM) was 0.749 and the relative viability (HCC-78; first compound 0.04 µM) was 0.566. For the same compound, the relative viability (HCC-78; first compound 0.1265 µM) was 0.633, the relative viability (HCC-78; first compound 0.4 µM) was 0.59 and the relative viability (HCC-78; first compound 1.265 µM) was 0.562. It also gave a relative viability (HCC-78; first compound 4 µM) of 0.547, a relative viability (EPLC-272H; first compound 0.04 µM) of 0.0728 and a relative viability (EPLC-272H; first compound 0.1265 µM) of 0.167. It also gave a relative viability (EPLC-272H; first compound 0.4 µM) of 0.212, a relative viability (EPLC-272H; first compound 1.265 µM) of 0.216 and a relative viability (EPLC-272H; first compound 4 µM) of 0.207. It also gave a relative viability (LOU-NH91; first compound 0.04 µM) of 0.786, a relative viability (LOU-NH91; first compound 0.1265 µM) of 0.691 and a relative viability (LOU-NH91; first compound 0.4 µM) of 0.756. The relative viability (LOU-NH91; first compound 1.265 µM) was 0.708, the relative viability (LOU-NH91; first compound 4 µM) was 0.686 and the relative viability (LC-2-ad; first compound 0.04 µM) was 0.897. It also gave a relative viability (LC-2-ad; first compound 0.1265 µM) of 0.762, a relative viability (LC-2-ad; first compound 0.4 µM) of 0.92 and a relative viability (LC-2-ad; first compound 1.265 µM) of 0.785. The relative viability (LC-2-ad; first compound 4 µM) was 0.817.
